Details: 323.14 K, Liquid, Vibrating tube method

FC(C(F)(F)F)C(F)(F)F [1,1,1,2,3,3,3-heptafluoropropane]
Details | mass density [kg/m3]
10190 kPa | 1363.3
10206 kPa | 1363.7
10232 kPa | 1363.8
10249 kPa | 1363.9
10273 kPa | 1364
10288 kPa | 1364
10306 kPa | 1364.3
10331 kPa | 1364.4
10619 kPa | 1366.6
10640 kPa | 1366.6
10664 kPa | 1366.8
10682 kPa | 1367
10704 kPa | 1367.2
10722 kPa | 1367.2
10915 kPa | 1368.6
10935 kPa | 1368.7
10959 kPa | 1368.8
10980 kPa | 1369
10998 kPa | 1369.1
11021 kPa | 1369.4
11042 kPa | 1369.4
11057 kPa | 1369.5
11076 kPa | 1369.7
11096 kPa | 1369.7
11117 kPa | 1370
11135 kPa | 1370.2
11157 kPa | 1370.3
11177 kPa | 1370.4
11197 kPa | 1370.5
11213 kPa | 1370.6
11232 kPa | 1370.9
11253 kPa | 1370.9
11267 kPa | 1370.9
11292 kPa | 1371.1
11315 kPa | 1371.3
11336 kPa | 1371.4
11363 kPa | 1371.8
11565 kPa | 1373.2
11585 kPa | 1373.1
11609 kPa | 1373.4
11632 kPa | 1373.4
11649 kPa | 1373.5
11666 kPa | 1373.6
11689 kPa | 1373.9
11707 kPa | 1374
11729 kPa | 1374.2
11754 kPa | 1374.2
11777 kPa | 1374.4
11792 kPa | 1374.5
11810 kPa | 1374.6
11827 kPa | 1374.8
11848 kPa | 1374.9
11870 kPa | 1375
11893 kPa | 1375.2
11908 kPa | 1375.3
11927 kPa | 1375.4
11947 kPa | 1375.6
11965 kPa | 1375.6
11993 kPa | 1375.7
12013 kPa | 1376
12029 kPa | 1376.1
12054 kPa | 1376.2
12076 kPa | 1376.4
12099 kPa | 1376.6
12118 kPa | 1376.8
12139 kPa | 1376.8
12160 kPa | 1377
12176 kPa | 1376.9
12200 kPa | 1377.2
12222 kPa | 1377.4
12238 kPa | 1377.4
12262 kPa | 1377.6
12274 kPa | 1377.8
12293 kPa | 1377.8
12313 kPa | 1377.9
12329 kPa | 1378.1
12350 kPa | 1378.1
12373 kPa | 1378.3
12391 kPa | 1378.5
12410 kPa | 1378.6
12427 kPa | 1378.8
12447 kPa | 1378.8
12464 kPa | 1378.9
12483 kPa | 1379.1
12497 kPa | 1379.2
12514 kPa | 1379.4
12536 kPa | 1379.3
12551 kPa | 1379.4
12573 kPa | 1379.6
12589 kPa | 1379.7
12612 kPa | 1379.9
12627 kPa | 1380
12652 kPa | 1380.2
12677 kPa | 1380.3
12736 kPa | 1380.7
12755 kPa | 1380.8
13031 kPa | 1382.6
13052 kPa | 1382.8
13077 kPa | 1382.9
13095 kPa | 1383
13117 kPa | 1382.9
13141 kPa | 1383.4
13161 kPa | 1383.4
13263 kPa | 1384.2
13295 kPa | 1384.2
13310 kPa | 1384.3
13334 kPa | 1384.5
13348 kPa | 1384.5
13370 kPa | 1384.7
13389 kPa | 1384.9
13415 kPa | 1385
13433 kPa | 1385
13456 kPa | 1385.2
13476 kPa | 1385.4
13497 kPa | 1385.5
13522 kPa | 1385.7
13541 kPa | 1385.7
13570 kPa | 1385.9
13595 kPa | 1386
13614 kPa | 1386.2
13637 kPa | 1386.4
13663 kPa | 1386.4
13682 kPa | 1386.6
13710 kPa | 1386.8
13870 kPa | 1387.7
14734 kPa | 1393
14760 kPa | 1393
14781 kPa | 1393.3
14798 kPa | 1393.4
14818 kPa | 1393.6
14842 kPa | 1393.7
14866 kPa | 1393.6
14883 kPa | 1393.8
14902 kPa | 1394
14919 kPa | 1394.1
14940 kPa | 1394.1
14959 kPa | 1394.3
14983 kPa | 1394.4
15001 kPa | 1394.4
15028 kPa | 1394.7
15049 kPa | 1394.9
15077 kPa | 1395
15098 kPa | 1395
15122 kPa | 1395.1
15150 kPa | 1395.5
15173 kPa | 1395.6
15198 kPa | 1395.7
15219 kPa | 1395.7
15265 kPa | 1396.1
15284 kPa | 1396.2
15307 kPa | 1396.3
15326 kPa | 1396.4
15346 kPa | 1396.5
15368 kPa | 1396.6
15389 kPa | 1396.7
15413 kPa | 1396.8
15436 kPa | 1397
15456 kPa | 1397.1
15488 kPa | 1397.3
15504 kPa | 1397.5
15524 kPa | 1397.5
15550 kPa | 1397.7
15575 kPa | 1397.8
15602 kPa | 1398
15630 kPa | 1398.1
15655 kPa | 1398.2
15678 kPa | 1398.5
16094 kPa | 1400.8
16115 kPa | 1400.9
16141 kPa | 1401
16161 kPa | 1401.1
16188 kPa | 1401.4
17246 kPa | 1407
17274 kPa | 1407.3
17301 kPa | 1407.6
17357 kPa | 1407.6
17403 kPa | 1407.9
17424 kPa | 1408
17446 kPa | 1408.2
17472 kPa | 1408.3
17493 kPa | 1408.4
17519 kPa | 1408.6
17539 kPa | 1408.5
17574 kPa | 1408.8
17597 kPa | 1408.9
17623 kPa | 1409
17646 kPa | 1409.2
17666 kPa | 1409.3
17693 kPa | 1409.4
17717 kPa | 1409.6
17741 kPa | 1409.7
17761 kPa | 1409.8
17791 kPa | 1410
17819 kPa | 1410.1
17843 kPa | 1410.3
17864 kPa | 1410.4
17920 kPa | 1410.7
18206 kPa | 1412.2
18259 kPa | 1412.5
18289 kPa | 1412.6
18339 kPa | 1412.9
18360 kPa | 1412.9
18390 kPa | 1413.2
18414 kPa | 1413.2
18445 kPa | 1413.4

Reference: the NIST ThermoML archive (doi:10.1021/je700260f)
